Data published in patent US10988524B2, “Modified relaxin B chain peptides and their therapeutic use” (priority 2018, dated 2021).
Values after ≈ are worked out from the molar mass of the structure shown. Read-outs that look alike come from different tables or passages of the source. Non-standard residues stand in square brackets, D forms with d. Residues, ends and D or L forms follow the SMILES beside them. Nle = CCCC[C@H](N)C(=O)O; Aib = CC(C)(N)C(=O)O

Legend:
[1] = target: T1, RXFP1 (Homo sapiens, UniProt Q9HBX9); assay: OVCAR5 cAMP assay (RXFP1 agonist activity, HTRF); settings: for Emax: OVCAR-5, read-out: cAMP assay in OVCAR 5 cells Emax, maximal intracellular cAMP relative to H2-relaxin in the same test occasion
T1 sequence (Q9HBX9 1-757): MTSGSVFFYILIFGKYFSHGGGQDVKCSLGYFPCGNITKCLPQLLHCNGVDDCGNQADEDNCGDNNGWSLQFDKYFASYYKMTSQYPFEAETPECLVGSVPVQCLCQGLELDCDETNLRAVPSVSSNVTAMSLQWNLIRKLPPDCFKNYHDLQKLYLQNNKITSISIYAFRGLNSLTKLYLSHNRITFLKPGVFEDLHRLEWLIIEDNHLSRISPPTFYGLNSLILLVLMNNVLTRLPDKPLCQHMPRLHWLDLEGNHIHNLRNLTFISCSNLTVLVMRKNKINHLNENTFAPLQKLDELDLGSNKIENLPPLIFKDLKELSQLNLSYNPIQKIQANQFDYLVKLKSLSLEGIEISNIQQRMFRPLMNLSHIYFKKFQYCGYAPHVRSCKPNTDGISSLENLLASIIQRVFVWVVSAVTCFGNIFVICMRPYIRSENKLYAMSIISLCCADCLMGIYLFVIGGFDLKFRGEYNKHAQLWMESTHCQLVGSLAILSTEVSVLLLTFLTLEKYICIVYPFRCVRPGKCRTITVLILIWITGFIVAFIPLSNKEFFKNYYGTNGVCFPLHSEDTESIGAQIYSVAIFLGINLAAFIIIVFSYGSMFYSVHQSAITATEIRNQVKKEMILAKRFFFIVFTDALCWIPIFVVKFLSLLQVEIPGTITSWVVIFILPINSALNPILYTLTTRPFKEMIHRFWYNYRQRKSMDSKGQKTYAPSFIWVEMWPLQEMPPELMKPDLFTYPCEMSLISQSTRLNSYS

[2] = Solubility testing of peptides in buffer; format: physicochemical
[3] = Stability in rat plasma; format: in vitro ADME; settings: 37° C.; for Rat plasma stability % remaining, T = 0: 5 μM; for remaining at 1 h, 5 μM / remaining at 4 h, 5 μM: rat plasma (sodium or lithium heparin)
Experimental: (§1) Prior to the testing of stability in plasma of a peptide batch, its purity (HPLC-UV) was determined.
(§2) Rat and Human plasma: anti-coagulant sodium or lithium heparin.
(§3) 100 μM solution of study compound in 50 mM Phosphate buffer pH 7.4.
(§4) 950 μL plasma is pre-incubated for 5 min at 37° C. 50 μL of compound stock solution is added. Final compound concentration=5 μM. Vortex and transfer 1504, plasma into an Eppendorf for each time point. The time points 0-1 and −4 h are carried out in duplicate for each species.
(§5) After incubation extract 1504, plasma with 6004, Acetonitrile containing with 1% TFA. Vortex and centrifuge 10 min at 14600 rpm. Dry 2004, supernatant under N2. Reconstitute sample in 200 μL of H2O/CH3CN 98/2+0.1% FA+50 ng/ml Labetalol and analyze using the analytical system used in solubility and stability studies.
(§6) For determination of the amount of the remaining peptide, the peak areas of the target compound at t0 and each time point […] were compared, resulting in “% remaining peptide”, following the equation
(§7) % remaining peptide=[(peak area peptide time)×100]/peak area peptide t0. The stability is expressed as “% remaining peptide”.

[4] = Stability in human plasma; format: in vitro ADME; settings: 37° C.; for Human Plasma stability % remaining, T = 0: 5 μM; for remaining at 1 h, 5 μM / remaining at 4 h, 5 μM: human plasma (sodium or lithium heparin)
Experimental: as §1, §2, §3, §4, §5, §6, §7

[5] = acetate buffer, pH 4.5, read-out: Solubility Acetate buffer pH 4.5
[6] = phosphate buffer, pH 7.4, read-out: Solubility phosphate buffer pH 7.4

| Emax [1] [%] | solubility ([2]; Acetate buffer 50 mM pH 4.5, target solubility 3.0 mg/ml, ~19 h, read-out: Solubility Acetate buffer pH 4.5) [µg/mL] | solubility ([2]; Phosphate buffer 50 mM pH 7.4, target solubility 3.0 mg/ml, ~19 h, read-out: Solubility phosphate buffer pH 7.4) [µg/mL] | Rat plasma stability % remaining, T = 0 [3] [%] | remaining at 1 h, 5 μM [3] [%] | remaining at 4 h, 5 μM [3] [%] | Human Plasma stability % remaining, T = 0 [4] [%] | remaining at 1 h, 5 μM [4] [%] | remaining at 4 h, 5 μM [4] [%] | EC50 ([1]; cAMP assay in OVCAR 5 cells EC50 (nM), OVCAR5 cells expressing endogenous RXFP1, cAMP by HTRF, 30 min at 37° C., 1 mM IBMX) [nM] | solubility [2, 5] [µg/mL] | solubility [2, 6] [µg/mL] | Compound |
| --- | --- | --- | --- | --- | --- | --- | --- | --- | --- | --- | --- | --- |
| 97 | ≥ 3300 | ≥ 2900 | 100 | 78 | 55 | 100 | 85 | 64 | – | – | – | CCCC[C@H](NC(=O)CNC(=O)[C@H](CCC(=O)O)NC(=O)C(C)(C)NC(=O)C(C)(C)NC(=O)[C@@H](NC(=O)[C@H](CCC(N)=O)NC(=O)[C@H](C)NC(=O)[C@H](CCCNC(=N)N)NC(=O)[C@@H](NC(=O)[C@H](CCCCN)NC(=O)[C@H](CCC(=O)O)NC(=O)[C@H](CCCNC(=N)N)NC(=O)CNC(=O)[C@H](CCC(=O)O)NC(=O)[C@H](CC(C)C)NC(C)=O)C(C)C)[C@@H](C)CC)C(=O)N[C@@H](CO)C(=O)N[C@H](C(=O)N[C@@H](Cc1c[nH]c2ccccc12)C(=O)N[C@@H](CO)C(=O)NC(C)(C)C(=O)N[C@@H](CCCNC(=N)N)C(=O)N[C@@H](CCCCN)C(=O)N[C@@H](CCCCN)C(N)=O)[C@@H](C)O [compound 3] (Ac-LEGREKVRAQI[Aib][Aib]EG[Nle]STWS[Aib]RKK-NH2) |
| 98 | – | – | 100 | 86 | 60 | 100 | 93 | 74 | ≤ 10 | 4000 (≈ 1400 µM) | 4000 (≈ 1400 µM) | CCCC[C@H](NC(=O)CNC(=O)[C@H](CCC(=O)O)NC(=O)C(C)(C)NC(=O)C(C)(C)NC(=O)[C@@H](NC(=O)[C@H](CCCCNC(C)=O)NC(=O)[C@H](C)NC(=O)[C@H](CCCNC(=N)N)NC(=O)[C@@H](NC(=O)[C@H](CCCCN)NC(=O)[C@H](CCC(=O)O)NC(=O)[C@H](CCCNC(=N)N)NC(=O)CNC(=O)[C@H](CCC(=O)O)NC(=O)[C@H](CC(C)C)NC(C)=O)C(C)C)[C@@H](C)CC)C(=O)N[C@@H](CO)C(=O)N[C@H](C(=O)N[C@@H](Cc1c[nH]c2ccccc12)C(=O)N[C@@H](CO)C(=O)NC(C)(C)C(=O)N[C@@H](CCCNC(=N)N)C(=O)N[C@@H](CCCCN)C(=O)N[C@@H](CCCCNC(C)=O)C(N)=O)[C@@H](C)O [compound 5] (Ac-LEGREKVRAK(Ac)I[Aib][Aib]EG[Nle]STWS[Aib]RKK(Ac)-NH2) |
| 99 | – | – | 100 | 91 | 101 | 100 | 95 | 93 | – | ≥ 6100 | ≥ 5800 | CC[C@H](C)[C@H](NC(=O)[C@H](CCC(N)=O)NC(=O)[C@H](C)NC(=O)[C@H](CCCNC(=N)N)NC(=O)[C@@H](NC(=O)[C@H](CCCCN)NC(=O)[C@H](CCC(=O)O)NC(=O)[C@H](CCCNC(=N)N)NC(=O)CNC(=O)[C@H](CCC(=O)O)NC(=O)[C@H](CC(C)C)NC(C)=O)C(C)C)C(=O)NC(C)(C)C(=O)NC(C)(C)C(=O)N[C@@H](CCC(=O)O)C(=O)NCC(=O)N[C@@H](CCSC)C(=O)N[C@@H](CO)C(=O)N[C@H](C(=O)N[C@@H](Cc1c[nH]c2ccccc12)C(=O)N[C@@H](CO)C(=O)NC(C)(C)C(=O)N[C@@H](CCCNC(=N)N)C(=O)N[C@@H](CCCCN)C(=O)N[C@@H](CCCCN)C(N)=O)[C@@H](C)O [compound 4] (Ac-LEGREKVRAQI[Aib][Aib]EGMSTWS[Aib]RKK-NH2) |
